Data set [1] addresses T1, Aryl hydrocarbon receptor (Homo sapiens, UniProt P35869).
T1 sequence (P35869 whole entry): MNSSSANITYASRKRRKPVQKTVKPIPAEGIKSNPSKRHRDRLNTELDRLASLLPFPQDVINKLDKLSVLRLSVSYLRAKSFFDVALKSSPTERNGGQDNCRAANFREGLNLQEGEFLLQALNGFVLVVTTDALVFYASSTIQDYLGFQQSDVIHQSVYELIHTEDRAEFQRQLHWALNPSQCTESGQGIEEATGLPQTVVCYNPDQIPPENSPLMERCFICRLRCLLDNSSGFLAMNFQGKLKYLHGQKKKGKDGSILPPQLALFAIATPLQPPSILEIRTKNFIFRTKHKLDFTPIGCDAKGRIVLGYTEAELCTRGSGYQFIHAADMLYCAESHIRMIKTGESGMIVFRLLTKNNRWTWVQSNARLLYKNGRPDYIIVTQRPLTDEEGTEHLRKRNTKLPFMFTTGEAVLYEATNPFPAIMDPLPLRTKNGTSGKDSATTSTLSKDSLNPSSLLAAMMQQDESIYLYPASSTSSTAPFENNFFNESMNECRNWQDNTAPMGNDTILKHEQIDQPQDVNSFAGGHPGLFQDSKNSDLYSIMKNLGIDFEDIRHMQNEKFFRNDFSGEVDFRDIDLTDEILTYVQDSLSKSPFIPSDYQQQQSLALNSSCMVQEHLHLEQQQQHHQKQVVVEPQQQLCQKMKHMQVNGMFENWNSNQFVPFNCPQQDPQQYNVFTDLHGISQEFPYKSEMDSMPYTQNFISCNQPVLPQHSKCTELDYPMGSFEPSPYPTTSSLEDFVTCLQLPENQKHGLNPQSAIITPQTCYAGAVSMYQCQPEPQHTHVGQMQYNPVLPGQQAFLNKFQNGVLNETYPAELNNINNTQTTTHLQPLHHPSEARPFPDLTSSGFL
In words: Agonist activity at AHR in human HepG2-Lucia AhR cells stably transfected with DRE by luciferase reporter assay. It is filed as cell-based. (In general: Reporter assays use an easily measured gene product as a stand-in for the process of interest.)

Data set [2] concerns the target T1, Aryl hydrocarbon receptor. In words: Agonist activity at AHR in human HepG2 cells stably transfected with DRE assessed as increase in CYP1A1 mRNA expression by qPCR assay. Format: cell-based. As to conditions: dose 0.1-10 µM.
Data set [3] addresses T1, Aryl hydrocarbon receptor. In words: Agonist activity at AHR in human HepG2 cells stably transfected with DRE assessed as increase in AHR nuclear translocation at 1 to 10 uM by Western blot analysis. Format: cell-based. The settings on record: dose 1-10 µM. For orientation: In western blotting, separated proteins are transferred to a membrane and probed.
A further data set has as its system Mus musculus. Description: Anti-psoriatic activity in imiquimod-induced BALB/c mouse model assessed as decrease in psoriasis-like skin lesion at 1 % administered topically. It is filed as functional, organism-based. As to conditions: Zone of skin, route top.

The source made the active and inactive calls. No cut-off for these calls is given here. Some results are limits rather than exact numbers.

For the compound `O=C1NC(=S)N/C1=C\c1c[nH]c2ccccc12`, in data set [1], the EC50 (as a rule, the concentration giving half of the maximal effect) was more than 10000 nM.

For the compound `C#CCN1C(=O)/C(=C/c2n[nH]c3ccccc23)NC1=S`, in data set [1], the EC50 came out at 15 nM. Besides, the Activity result in data set [2] and in data set [3] was “Dose-Dependent Effect” in each case. In addition, the outcome in the data set on Mus musculus was Active. The compound `O=C1NC(=O)/C(=C/c2c[nH]c3ccccc23)N1` showed a concentration for a half-maximal effect (EC50) in data set [1] of more than 10000 nM. Still for that read-out and setting: next, `Cc1ccc([N+](=O)[O-])c2c1NC(c1ccc(Br)cc1)=NO2`: 3400 nM.

On to `CN1C(=O)C(Cc2c[nH]c3ccccc23)NC1=S` (stereo not given) [NECROSTATIN], for which the EC50 in data set [1] was more than 10000 nM. Same read-out and setting: next, `CCN1C(=O)/C(=C\c2c[nH]c3ccccc23)NC1=S`: 1800 nM; `CC#CCN1C(=O)/C(=C/c2n[nH]c3ccccc23)NC1=S`: 528 nM. `Cc1cc(-c2nnc3sc(-c4ccccc4Br)nn23)[nH]n1` returned a concentration for a half-maximal effect (EC50) in data set [1] of 2800 nM. Same read-out and setting: the same measure for `CN1C(=O)/C(=C/c2cncnc2)NC1=S`: more than 10000 nM. Same read-out and setting: the same measure for `Cc1[nH]c2ccccc2c1/C=C1\NC(=S)N(C)C1=O`: more than 10000 nM; for `CC(C)N1C(=O)/C(=C/c2c[nH]c3ccccc23)NC1=S`: 10000 nM; for `CN1C(=O)/C(=C/c2csc3ccccc23)NC1=S`: 1800 nM. As for `CN1C(=S)NC(=O)/C1=C/c1n[nH]c2ccccc12`, the EC50 in data set [1] was determined as 2500 nM. Take `COc1cccc(OC)c1C(=O)OCc1cc(=O)n2cc(Br)ccc2n1`: the EC50 in data set [1] worked out at 5900 nM. Still for that read-out and setting: next, `CCN1C(=O)/C(=C/c2n[nH]c3ccccc23)NC1=S`: 219 nM; `CN1C(=O)/C(=C/c2n[nH]c3ccccc23)NC1=S`: 49 nM. Same read-out and setting: next, `CN1C(=O)/C(=C/c2c[nH]c3ccccc23)NC1=S`: 143 nM.

The values are drawn from ChEMBL document CHEMBL5365401, “Discovery of 5-((1H-indazol-3-yl) methylene)-2-thioxoimidazolidin-4-one derivatives as a new class of AHR agonists with anti-psoriasis activity in a mouse model” (Bioorg Med Chem Lett, 2023).
